Format in all cases: cell-based
One experiment has as its target T1, CDK9 (Homo sapiens, UniProt P50750).
T1 construct: host or cells: HEK293
In words: CDK9 HIBIT PQ (protein quantification), degradation. Conditions: for Dmax: Max = Maximum; for DC50: PQ = Protein Quantification. In outline: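 HEK293 cells carrying HiBiT-tagged CDK9 were grown in DMEM with 10% FBS and seeded in 384-well plates at 1.6×10^5 cells/well in 50 uL, then incubated overnight at 37° C and 5% CO2. After compound treatment, CDK9 protein was measured with a HiBiT assay. High control was 0.1% DMSO-treated cells and low control was culture medium only. Maximal degradation, Dmax and DC50 were derived from these readings.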

Another experiment addresses T2, CDK2 (Homo sapiens, UniProt P24941).
T2 construct: host or cells: HEK293
The experiment in a line: CDK2 HIBIT PQ (protein quantification), degradation. Conditions: for CDK2 HIBIT PQ Max (%): Max = Maximum; for DC50: PQ = Protein Quantification. The essentials:
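HEK293 cells bearing HiBiT-tagged CDK2 were cultured in DMEM containing 10% FBS, plated in 384-well plates at 1.6×10^5 cells/well in 50 uL, and kept overnight at 37° C and 5% CO2. Following 6 hours of compound exposure, each well received 20 μL of HiBiT reagent (Nano-Glo HiBiT lytic buffer, lytic substrate, LgBiT protein), and plates were shaken for 20 minutes at room temperature and then read on an EnVision, with 0.1% DMSO as the high control and medium only as the low control. DC50 and maximal degradation were calculated from these readings.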

Another experiment has as its target T3, CCNE1 (Homo sapiens, UniProt P24864+P24941).
T3 construct: host or cells: HEK293
In words: CCNE1 HIBIT PQ (protein quantification), degradation. The settings on record: for CCNE1 HIBIT PQ Max (%): Max = Maximum; for DC50: PQ = Protein Quantification. The essentials:
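For DC50 and maximal degradation, CCNE1 protein was quantified with a HiBiT assay in HEK293 cells carrying HiBiT-tagged CCNE1. Cells in EMEM with 10% FBS went into 384-well plates at 1.6×10⁵ cells/well in 50 uL, stayed overnight at 37° C and 5% CO₂, and then received compound for 6 hours. Readings were referenced to 0.1% DMSO-treated cells as the high control and culture medium only as the low control.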

These results are taken from patent publication US20260062426A1, “CYCLIN DEPENDENT KINASE DEGRADERS AND METHODS OF USE THEREOF” (Differentiated Therapeutics Inc, priority 2023, published 2026).

The term Dmax denotes the greatest extent of degradation seen. A lower Dmax goes with shallow degradation. By DC50 is commonly meant the concentration giving 50% degradation. Higher therefore signals degradation only at high concentration.

T1 sequence (P50750 whole entry): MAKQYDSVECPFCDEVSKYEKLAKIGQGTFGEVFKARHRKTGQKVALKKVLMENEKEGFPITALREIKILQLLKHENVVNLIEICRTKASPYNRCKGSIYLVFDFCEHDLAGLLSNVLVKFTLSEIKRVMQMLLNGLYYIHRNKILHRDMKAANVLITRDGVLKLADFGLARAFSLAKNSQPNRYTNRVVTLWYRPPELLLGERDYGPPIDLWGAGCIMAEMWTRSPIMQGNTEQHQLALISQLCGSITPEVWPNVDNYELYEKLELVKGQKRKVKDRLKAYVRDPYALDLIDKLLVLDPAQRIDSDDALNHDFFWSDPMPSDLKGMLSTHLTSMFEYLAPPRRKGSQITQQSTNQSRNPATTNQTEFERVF

On CDK9, `CC(C)Oc1c(-c2cn[nH]c2)ncn2nc(Nc3ccc(S(=O)(=O)N(C)CCCN4CCC(c5ccc6c(c5)n(C)c(=O)n6C5CCC(=O)NC5=O)CC4)c4ccoc34)nc12` (racemic) [Compound 53] displayed a Dmax of 67% and a DC50 of 2.64 nM. For the same compound, on CDK2, the “CDK2 HIBIT PQ Max (%)” value was 87% and half-maximal degradation (DC50) was put at 0.2 nM. Moreover, on CCNE1, the “CCNE1 HIBIT PQ Max (%)” value was found to be 61% and the 50% degradation concentration (DC50) came to 0.74 nM.

On to `CC(C)Oc1c(-c2cn[nH]c2)ncn2nc(Nc3ccc(S(=O)(=O)N(C)CCCN4CCC(c5ccc6c(c5)n(C)c(=O)n6C5CCC(=O)NC5=O)CC4)cc3)nc12` (racemic) [Compound 54], for which, on CDK9, the Dmax amounted to 74% and the DC50 amounted to 1.57 nM. Further, at CDK2, the “CDK2 HIBIT PQ Max (%)” value came out at 89% and half-maximal degradation (DC50) was put at 0.1 nM. Moreover, at CCNE1, the “CCNE1 HIBIT PQ Max (%)” value was determined as 82% and it took 0.59 nM to reach half-maximal degradation (DC50).

On CDK9, `Cc1c(S(=O)(=O)N(C)CCCN2CCC(c3ccc4c(c3)n(C)c(=O)n4C3CCC(=O)NC3=O)CC2)ccc(Nc2nc3c(OC(C)C)c(-c4cn[nH]c4)ncn3n2)c1F` (racemic) [Compound 55, rac-(R)-N-(3-(4-(1-(2,6-dioxopiperidin-3-yl)-3-methyl-2-oxo-2,3-dihydro-1H-benzo[d]imidazol-5-yl)piperidin-1-yl)propyl)-3-fluoro-4-((8-isopropoxy-7-(1H-pyrazol-4-yl)-[1,2,4]triazolo[1,5-c]pyrimidin-2-yl)amino)-N,2-dimethylbenzenesulfonamide] yielded a Dmax of 83% and a 50% degradation concentration (DC50) of 1.13 nM. At CDK2, the “CDK2 HIBIT PQ Max (%)” value is listed as 91% and the DC50 came to 0.1 nM. Further, at CCNE1, the “CCNE1 HIBIT PQ Max (%)” value is 76% and the DC50 came out at 0.51 nM.

Take `CC(C)Oc1c(-c2cn[nH]c2)ncn2nc(Nc3ccc(S(=O)(=O)N(C)CCCN4CCC(c5ccc6c(c5)n(C)c(=O)n6C5CCC(=O)NC5=O)CC4)c(F)c3F)nc12` (racemic) [Compound 56]: on CDK9, the Dmax is 90% and it took 0.48 nM to reach half-maximal degradation (DC50). The “CDK2 HIBIT PQ Max (%)” value at CDK2 is 93%. On CCNE1, the “CCNE1 HIBIT PQ Max (%)” value worked out at 82% and it took 0.23 nM to reach half-maximal degradation (DC50).

On CDK9, `Cc1cc(S(=O)(=O)N(C)CCCN2CCC(c3ccc4c(c3)n(C)c(=O)n4C3CCC(=O)NC3=O)CC2)cc(F)c1Nc1nc2c(OC(C)C)c(-c3cn[nH]c3)ncn2n1` (racemic) [Compound 57] had a Dmax of 82% and a DC50 of 2.25 nM. At CDK2, the “CDK2 HIBIT PQ Max (%)” value worked out at 90% and the DC50 came out at 0.3 nM. Further, on CCNE1, the “CCNE1 HIBIT PQ Max (%)” value turned out to be 76% and the DC50 came out at 0.62 nM.

Take `CC(C)Oc1c(-c2cn[nH]c2)ncn2nc(Nc3c(F)cc(S(=O)(=O)N(C)CCCN4CCC(c5ccc6c(c5)n(C)c(=O)n6C5CCC(=O)NC5=O)CC4)cc3F)nc12` (racemic) [Compound 58]: at CDK9, the Dmax is 86% and the DC50 came out at 1.51 nM. For the same compound, on CDK2, the “CDK2 HIBIT PQ Max (%)” value is reported as 94% and half-maximal degradation (DC50) was put at 0.1 nM. In addition, at CCNE1, the “CCNE1 HIBIT PQ Max (%)” value was 86% and the DC50 stood at 0.39 nM.

Turning to `Cc1cc(Nc2nc3c(OC(C)C)c(-c4cn[nH]c4)ncn3n2)c(F)cc1S(=O)(=O)N(C)CCCN1CCC(c2ccc3c(c2)n(C)c(=O)n3C2CCC(=O)NC2=O)CC1` (racemic) [Compound 59], at CDK9, the Dmax amounted to 68% and the DC50 turned out to be 1.34 nM. For the same compound, at CDK2, the “CDK2 HIBIT PQ Max (%)” value is reported as 86% and it took 0.1 nM to reach half-maximal degradation (DC50). Besides, on CCNE1, the “CCNE1 HIBIT PQ Max (%)” value is 66% and it took 0.4 nM to reach half-maximal degradation (DC50).

On to `CC(C)Oc1c(-c2cn[nH]c2)ncn2nc(Nc3cc(F)c(S(=O)(=O)N(C)CCCN4CCC(c5ccc6c(c5)n(C)c(=O)n6C5CCC(=O)NC5=O)CC4)cc3F)nc12` (racemic) [Compound 60], for which, at CDK9, the Dmax is 75% and it took 1.52 nM to reach half-maximal degradation (DC50). Moreover, at CDK2, the “CDK2 HIBIT PQ Max (%)” value was determined as 93%. In addition, at CCNE1, the “CCNE1 HIBIT PQ Max (%)” value came to 74% and it took 0.45 nM to reach half-maximal degradation (DC50).

On CDK9, `CC(C)Oc1c(-c2cn[nH]c2)ncn2nc(Nc3ccc(S(=O)(=O)N(C)CCCN4CCC(c5ccc6c(c5)n(C)c(=O)n6C5CCC(=O)NC5=O)CC4)c4cnccc34)nc12` (racemic) [Compound 61] yielded a Dmax of 78% and a half-maximal degradation concentration (DC50) of 3.2 nM. Further, on CDK2, the “CDK2 HIBIT PQ Max (%)” value was found to be 86% and the DC50 was determined as 0.3 nM. Moreover, at CCNE1, the “CCNE1 HIBIT PQ Max (%)” value was found to be 72% and it took 1.55 nM to reach half-maximal degradation (DC50).

For the compound `CC(C)Oc1c(-c2cn[nH]c2)ncn2nc(Nc3ccc(S(=O)(=O)N(C)CCCN4CCN(c5ccc6c(c5)n(C)c(=O)n6C5CCC(=O)NC5=O)CC4(C)C)cc3F)nc12` (racemic) [Compound 67], at CDK9, the Dmax was 91% and the DC50 was 1.52 nM. On CDK2, the “CDK2 HIBIT PQ Max (%)” value is 92% and the DC50 is less than 0.152 nM. On CCNE1, the “CCNE1 HIBIT PQ Max (%)” value is recorded as 73% and the DC50 is 1.08 nM.

The compound `CC(C)Oc1c(-c2cn[nH]c2)ncn2nc(Nc3ccc(S(=O)(=O)N4CC5(CCCN(CC6CCN(c7cccc8c7n(C)c(=O)n8C7CCC(=O)NC7=O)CC6)C5)C4)cc3F)nc12` (racemic) [Compound 76] came in with a Dmax on CDK9 of 46%. On CDK2, the “CDK2 HIBIT PQ Max (%)” value is 87% and the DC50 worked out at 5.8 nM. Besides, the “CCNE1 HIBIT PQ Max (%)” value at CCNE1 stood at 40%.

On CDK9, `CC(C)Oc1c(-c2cn[nH]c2)ncn2nc(Nc3ccc(S(=O)(=O)c4cccc(C(C)N5CCC(c6ccc7c(N8CCC(=O)NC8=O)nn(C)c7c6)CC5)c4)cc3F)nc12` (racemic) [Compound 85] displayed a Dmax of 82% and a DC50 of 12 nM. At CDK2, the “CDK2 HIBIT PQ Max (%)” value amounted to 93% and half-maximal degradation (DC50) was put at 1.5 nM. Besides, at CCNE1, the “CCNE1 HIBIT PQ Max (%)” value came out at 80% and it took 9.64 nM to reach half-maximal degradation (DC50).

The compound `CC(C)Oc1c(-c2cn[nH]c2)ncn2nc(Nc3ccc(S(=O)(=O)N4CCCC(CN5CC(c6ccc7c(N8CCC(=O)NC8=O)nn(C)c7c6)C5)C4)cc3F)nc12` (racemic) [Compound 86] came in with a Dmax at CDK9 of 20%. For the same compound, at CDK2, the “CDK2 HIBIT PQ Max (%)” value was found to be 56% and it took 1.3 nM to reach half-maximal degradation (DC50). The “CCNE1 HIBIT PQ Max (%)” value at CCNE1 is reported as 38%.

At CDK9, `CC(C)Oc1c(-c2cn[nH]c2)ncn2nc(Nc3ccc(S(=O)(=O)N4CCCC(CN5CCC(c6ccc7c(N8CCC(=O)NC8=O)nn(C)c7c6)CC5)C4)cc3F)nc12` (racemic) [Compound 87, rac-(R)-1-(6-(1-((1-((3-fluoro-4-((8-isopropoxy-7-(1H-pyrazol-4-yl)-[1,2, 4]triazolo[1,5-c]pyrimidin-2-yl)amino)phenyl)sulfonyl)piperidin-3-yl)methyl)piperidin-4-yl)-1-methyl-1H-indazol-3-yl)dihydropyrimidine-2,4(1H,3H)-dione] yielded a Dmax of 72% and a DC50 of 3.32 nM. Moreover, on CDK2, the “CDK2 HIBIT PQ Max (%)” value worked out at 90% and it took 0.4 nM to reach half-maximal degradation (DC50). For the same compound, at CCNE1, the “CCNE1 HIBIT PQ Max (%)” value is listed as 79% and half-maximal degradation (DC50) was put at 1.4 nM.
